Experimental data published in patent US20250214966A1, “Crystalline Salt Form Of A SHP2 Inhibitor” (Array BioPharma Inc., priority 2022, published 2025).
Like-named read-outs stand apart in the source and are kept apart here.

What was measured:
Type in all cases: physicochemical
[1] = Dynamic vapor sorption of salts (Table 14); conditions: 25° C.; for DVS weight change: ramping 40-90% RH
Protocol: DVS (Table 14): Approximately, 10-20 mg of sample was placed into a mesh vapor sorption balance pan and loaded into a DVS Intrinsic dynamic vapor sorption balance by Surface Measurement Systems. The sample was subjected to a ramping profile from 40-90% relative humidity (RH) at 10% increments, maintaining the sample at each step until a stable weight had been achieved (dm/dt 0.004%, minimum step length 30 minutes, maximum step length 500 minutes) at 25° C. After completion of the sorption cycle, the sample was dried using the same procedure to 0% RH and then a second sorption cycle back to 40% RH. Two cycles were performed. Theweight change during the sorption/desorption cycles were plotted, allowing for the hygroscopic nature of the sample to be determined. XRPD analysis was then carried out on any solid retained. […] The sample was subjected to a ramping profile from 40-90% relative humidity (RH) at 10% increments, maintaining the sample at each step until a stable weight had been achieved (dm/dt 0.004%, minimum step length 30 minutes, maximum step length 500 minutes) at 25° C. After completion of the sorption cycle, the sample was dried using the same procedure to 0% RH and then a second sorption cycle back to 40% RH. Two cycles were performed. The weight change during the sorption/desorption cycles were plotted, allowing for the hygroscopic nature of the sample to be determined. XRPD analysis was then carried out on any solid retained.

[2] = TGA/DSC of salts (Table 14); conditions: 10° C./min
Protocol: TGA/DSC (Table 14): Approximately, 5-10 mg of material was added into a pre-tared open aluminum pan and loaded into a TA Instruments Discovery SDT 650 Auto—Simultaneous DSC and held at room temperature. The sample was then heated at a rate of 10° C./min from 20° C. (ambient) to 400° C. during which time the change in sample weight was recorded along with the heat flow response (DSC). Nitrogen was used as the sample purge gas, at a flow rate of 200 cm3/min.
DSC (Table 14): Approximately, 1-5 mg of material was weighed into an aluminum DSC pan and sealed nonhermetically with an aluminum lid. The sample pan was then loaded into a TA Instruments Discovery DSC 2500 differential scanning calorimeter equipped with a RC90 cooler. The sample and reference were heated to 310° C. at a scan rate of 10° C./min and the resulting heat flow response monitored. The sample was re-cooled to 20° C. and then reheated again to 205° C. all at 10° C./min. Nitrogen was used as the purge gas, at a flow rate of 50 cm^3/min.

[3] = Solubility of salts in buffer systems at 37° C. (Table 14); conditions: 20 mg in 1 mL; for solubility at 18 h: thermodynamic from solid
Protocol: The solubility (Table 14) was determined by adding 20 mg of salts (Examples 3 to 8) into 3 HPLC vials, to each vial, a magnetic stirrer bar was added along with 1 mL of the appropriate buffer system (pH 1.2 HCl, pH 4.5 sodium acetate, or pH 6.8 phosphate). The samples were agitated at 37° C. for […]. After 24 hours, the slurries were isolated by centrifugation filtration and isolated mother liquors were analyzed by HPLC.
HPLC method (Table 14): A Dionex Ultimate 3000 HPLC instrument was used with a Waters XSelect HSS T3 Column (100 angstrom, 4.6×150 mm, 5 μm). The column temperature was set to 20° C., the UV wavelength set to 254 nm, the injection volume was 10 μL, with a flow rate of 1.0 mL/min. 10 mM ammonium acetate adjusted to pH 4.8 was used as a mobile phase A, and acetonitrile was used as mobile phase B. The gradient method was set up to achieve 15% mobile phase B at 0 minutes, 95% mobile phase B at 17 minutes—held until 22 minutes, 15% mobile phase B at 22.1 minutes—held until 28 minutes.

[4] = pH 1.2 HCl buffer, simulated gastric fluid, pH 1.2 HCl, read-out: Solubility pH 1.2 HCl
[5] = pH 4.5 sodium acetate buffer, aqueous buffer, pH 4.5 sodium acetate, read-out: Solubility pH 4.5 Sodium Acetate
[6] = pH 6.8 phosphate buffer, aqueous buffer, pH 6.8 phosphate, read-out: Solubility Ph 6.8 Phosphate

| DVS hygroscopic nature [1] | DVS weight change [1] | TGA/DSC Melt/degradation [2] | solubility at 18 h [3, 4] | solubility at 18 h [3, 5] | solubility at 18 h [3, 6] | Solubility pH 1.2 HCl (mg/mL) ([3]; pH 1.2 HCl) | Solubility pH 4.5 Sodium Acetate ([3]; pH 4.5 sodium acetate) | Solubility Ph 6.8 Phosphate ([3]; pH 6.8 phosphate) | Structure (SMILES) |
| --- | --- | --- | --- | --- | --- | --- | --- | --- | --- |
| Hygroscopic | 2.1% | 225.7 °C | > 20000 µg/mL | 200 µg/mL | 400 µg/mL | – | – | – | Nc1nccc(Sc2cnc(N3CCC4(CC3)Cc3ccccc3[C@H]4N)nn2)c1Cl.O=C(O)/C=C/C(=O)O [Example 6, (S)-1′-(6-((2-Amino-3-chloropyridin-4-yl)thio)-1,2,4-triazin-3-yl)-1,3-dihydrospiro[indene-2,4′-piperidin]-1-amine fumarate] |
| Hygroscopic | 6.3% | 100 °C | – | – | – | >20 mg/mL | 0.3 mg/mL | 9300 µg/mL | Nc1nccc(Sc2cnc(N3CCC4(CC3)Cc3ccccc3[C@H]4N)nn2)c1Cl.O=P(O)(O)O [Example 4, (S)-1′-(6-((2-Amino-3-chloropyridin-4-yl)thio)-1,2,4-triazin-3-yl)-1,3-dihydrospiro[indene-2,4′-piperidin]-1-amine phosphate (Pattern 1)] |
| Hygroscopic | 5.8% | 187 °C | > 20000 µg/mL | 400 µg/mL | 1200 µg/mL | – | – | – | Nc1nccc(Sc2cnc(N3CCC4(CC3)Cc3ccccc3[C@H]4N)nn2)c1Cl.O=C(O)C(O)C(O)C(=O)O [Example 7, (S)-1′-(6-((2-Amino-3-chloropyridin-4-yl)thio)-1,2,4-triazin-3-yl)-1,3-dihydrospiro[indene-2,4′-piperidin]-1-amine tartrate] |
| Hygroscopic | 7.6% | 174 °C | – | – | – | >20 mg/mL | 0.4 mg/mL | 1900 µg/mL | Nc1nccc(Sc2cnc(N3CCC4(CC3)Cc3ccccc3[C@H]4N)nn2)c1Cl.O=P(O)(O)O [Example 5, (S)-1′-(6-((2-Amino-3-chloropyridin-4-yl)thio)-1,2,4-triazin-3-yl)-1,3-dihydrospiro[indene-2,4′-piperidin]-1-amine phosphate (Pattern 2)] |
